How the values were obtained:
Assay in all cases: Weeding effect in post-emergence stage
Assay type in all cases: in vivo
Conditions in all cases: active ingredient 2000 g/ha, 3 weeks after application, fresh weight control rate
Descurainia sophia = tested on: Descurainia sophia
Procedure, shortened: (§1)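 Greenhouse post-emergence test: 2-3 leaf plants sprayed at 125-2000 g/ha, then fresh weight control rate scored at 3 weeks.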

Abutilon theophrasti = tested on: Abutilon theophrasti
Procedure, shortened: as §1

Chenopodium album = tested on: Chenopodium album
Procedure, shortened: as §1

[1] = tested on: Amaranthus retroflexus L.
Procedure, shortened: as §1

Compound | Weeding effect, activity level (growth control rate), Descurainia sophia (Descurainia sophia) | Weeding effect, activity level (growth control rate), Abutilon theophrasti (Abutilon theophrasti) | Weeding effect, activity level (growth control rate), Chenopodium album (Chenopodium album) | Weeding effect, activity level (growth control rate), Amaranthus retroflexus L. [1]
COC(C)c1c(C(=O)Nc2nnnn2C)ccnc1-c1ccc(F)cc1 (stereo not shown) [Compound 1-215] | 5 (Level 5: growth control rate is above 85%) | 5 (Level 5: growth control rate is above 85%) | 5 (Level 5: growth control rate is above 85%) | 5 (Level 5: growth control rate is above 85%)
CCC(OC)c1c(C(=O)Nc2nnnn2C)ccnc1-c1ccc(F)cc1 (stereo not shown) [Compound 1-216] | 5 (Level 5: growth control rate is above 85%) | 5 (Level 5: growth control rate is above 85%) | 5 (Level 5: growth control rate is above 85%) | 5 (Level 5: growth control rate is above 85%)
COCCc1c(C(=O)Nc2nnnn2C)ccnc1-c1ccc(F)cc1 [Compound 1-217] | 5 (Level 5: growth control rate is above 85%) | 5 (Level 5: growth control rate is above 85%) | 5 (Level 5: growth control rate is above 85%) | 5 (Level 5: growth control rate is above 85%)
C=Cc1c(C(=O)Nc2nnnn2C)ccnc1-c1ccc(F)cc1 [Compound 1-218] | 5 (Level 5: growth control rate is above 85%) | 5 (Level 5: growth control rate is above 85%) | 5 (Level 5: growth control rate is above 85%) | 5 (Level 5: growth control rate is above 85%)
C=CCc1c(C(=O)Nc2nnnn2C)ccnc1-c1ccc(F)cc1 [Compound 1-219] | 5 (Level 5: growth control rate is above 85%) | 5 (Level 5: growth control rate is above 85%) | 5 (Level 5: growth control rate is above 85%) | 5 (Level 5: growth control rate is above 85%)
C#Cc1c(C(=O)Nc2nnnn2C)ccnc1-c1ccc(F)cc1 [Compound 1-220] | 5 (Level 5: growth control rate is above 85%) | 5 (Level 5: growth control rate is above 85%) | 5 (Level 5: growth control rate is above 85%) | 5 (Level 5: growth control rate is above 85%)
Cn1nnnc1NC(=O)c1ccnc(-c2ccc(F)cc2)c1C1CC1 [Compound 1-221] | 5 (Level 5: growth control rate is above 85%) | 5 (Level 5: growth control rate is above 85%) | 5 (Level 5: growth control rate is above 85%) | 5 (Level 5: growth control rate is above 85%)
Cn1nnnc1NC(=O)c1ccnc(-c2ccc(F)cc2)c1C=C(F)F [Compound 1-222] | 5 (Level 5: growth control rate is above 85%) | 5 (Level 5: growth control rate is above 85%) | 5 (Level 5: growth control rate is above 85%) | 5 (Level 5: growth control rate is above 85%)
Cn1nnnc1NC(=O)c1ccnc(-c2ccc(F)cc2)c1-c1ccc(F)cc1 [Compound 1-223] | 5 (Level 5: growth control rate is above 85%) | 5 (Level 5: growth control rate is above 85%) | 5 (Level 5: growth control rate is above 85%) | 5 (Level 5: growth control rate is above 85%)
Cn1nnnc1NC(=O)c1ccnc(-c2cscn2)c1Cl [Compound 1-228] | 5 (Level 5: growth control rate is above 85%) | 5 (Level 5: growth control rate is above 85%) | 5 (Level 5: growth control rate is above 85%) | 5 (Level 5: growth control rate is above 85%)
Cn1nnnc1NC(=O)c1ccnc(-c2cncs2)c1Cl [Compound 1-229] | 5 (Level 5: growth control rate is above 85%) | 5 (Level 5: growth control rate is above 85%) | 5 (Level 5: growth control rate is above 85%) | 5 (Level 5: growth control rate is above 85%)
Cn1nnnc1NC(=O)c1ccnc(-c2nccs2)c1Cl [Compound 1-230] | 5 (Level 5: growth control rate is above 85%) | 5 (Level 5: growth control rate is above 85%) | 5 (Level 5: growth control rate is above 85%) | 5 (Level 5: growth control rate is above 85%)
Cn1ccnc1-c1nccc(C(=O)Nc2nnnn2C)c1Cl [Compound 1-233] | 5 (Level 5: growth control rate is above 85%) | 5 (Level 5: growth control rate is above 85%) | 5 (Level 5: growth control rate is above 85%) | 5 (Level 5: growth control rate is above 85%)
Cn1cncc1-c1nccc(C(=O)Nc2nnnn2C)c1Cl [Compound 1-234] | 5 (Level 5: growth control rate is above 85%) | 5 (Level 5: growth control rate is above 85%) | 5 (Level 5: growth control rate is above 85%) | 5 (Level 5: growth control rate is above 85%)
Cc1nnc(-c2nccc(C(=O)Nc3nnnn3C)c2Cl)s1 [Compound 1-249] | 5 (Level 5: growth control rate is above 85%) | 5 (Level 5: growth control rate is above 85%) | 5 (Level 5: growth control rate is above 85%) | 5 (Level 5: growth control rate is above 85%)
CCn1nnnc1NC(=O)c1ccnc(-c2ccc(F)cc2)c1Cl [Compound 1-307] | 5 (Level 5: growth control rate is above 85%) | 5 (Level 5: growth control rate is above 85%) | 5 (Level 5: growth control rate is above 85%) | 5 (Level 5: growth control rate is above 85%)
Cn1ncnc1NC(=O)c1ccnc(-c2ccc(F)cc2)c1Cl [Compound 1-334] | 5 (Level 5: growth control rate is above 85%) | 5 (Level 5: growth control rate is above 85%) | 5 (Level 5: growth control rate is above 85%) | 5 (Level 5: growth control rate is above 85%)
Cc1nnc(NC(=O)c2ccnc(-c3ccc(F)cc3)c2Cl)n1C [Compound 1-650] | 5 (Level 5: growth control rate is above 85%) | 5 (Level 5: growth control rate is above 85%) | 5 (Level 5: growth control rate is above 85%) | 5 (Level 5: growth control rate is above 85%)
Cc1nnc(NC(=O)c2ccnc(-c3ccc(F)cc3)c2Cl)o1 [Compound 1-962] | 5 (Level 5: growth control rate is above 85%) | 5 (Level 5: growth control rate is above 85%) | 5 (Level 5: growth control rate is above 85%) | 5 (Level 5: growth control rate is above 85%)
O=C(Nc1nnc(C2CC2)o1)c1ccnc(-c2ccc(F)cc2)c1Cl [Compound 1-1257] | 5 (Level 5: growth control rate is above 85%) | 5 (Level 5: growth control rate is above 85%) | 5 (Level 5: growth control rate is above 85%) | 5 (Level 5: growth control rate is above 85%)
O=C(Nc1ccon1)c1ccnc(-c2ccc(F)cc2)c1Cl [Compound 1-1286] | 5 (Level 5: growth control rate is above 85%) | 5 (Level 5: growth control rate is above 85%) | 5 (Level 5: growth control rate is above 85%) | 5 (Level 5: growth control rate is above 85%)
Cc1conc1NC(=O)c1ccnc(-c2ccc(F)cc2)c1Cl [Compound 1-1577] | 5 (Level 5: growth control rate is above 85%) | 5 (Level 5: growth control rate is above 85%) | 5 (Level 5: growth control rate is above 85%) | 5 (Level 5: growth control rate is above 85%)

Source: patent publication US12497365B2, “4-pyridinyl formamide compound or derivative thereof, preparation method therefor, herbicidal composition and use thereof” (Qingdao Kingagroot Chemical Compound Co., Ltd., priority 2019, dated 2025)
